The values below come from paper PMC4125160, “Neurotoxicity and Mode of Action of N, N-Diethyl-Meta-Toluamide (DEET)” (PLoS ONE, 2014).

In data set [1] the test system is sodium channels in neonatal rat cortical neurons. Briefly: Patch clamp of rat cortical neurons, sodium currents. The class given is cell-based. As to the method: Rat cortical neurons (purchased from Lonza, Walkersville, MD, USA) were placed on poly-lysine coated glass cover slips in 35 mm dishes, and cultured in primary neuron basal medium with added 2% neural grown factor and 1% glutamine (from Lonza). The medium was half changed every 3 days, and the cells were used at 6–12 days. The neurons had dendrites and axons and the diameters of the somata were about 15–20 µm. Cells were cultured on cover slips and were immersed in 35 mm Petri dishes filled with room temperature extracellular saline. Patch pipettes were pulled from borosilicate glass capillaries with filament (BF150-86-10, Sutter Instrument, Novato CA, USA) on a P-1000 Flaming/Brown micropipette puller (Sutter Instrument). Extracellular solution was the same regardless of the target ion channel and contained: 140 mM NaCl, 5 mM KCl, 2 mM MgCl2, 2 mM CaCl2, 10 mM glucose, and 10 mM HEPES (pH = 7.4). Intracellular patch solution for potassium channel recordings consisted of: 140 mM KF, 10 mM NaCl, 2 mM MgCl2, and 10 mM HEPES (pH = 7.2). Intracellular patch solution for sodium channel recordings consisted of: 140 mM CsCH3SO3 10 mM NaCl, 2 mM MgCl2, 10 mM HEPES (pH = 7.2), where CsCH3SO3 was used to eliminate potassium currents during sodium channel analysis. The patch electrodes had resistances of 5–7 MOhms.
Patch clamp recordings were performed with a 40x/0.80W water immersion objective (working distance 3.5 mm) using a forced-air-cooled Photometrics Evolve 512/CCD97 camera system. Following gigaseal formation, the membrane was ruptured through a brief, manual suction of the electrode, or by a 2 msec long zap pulse. Currents were amplified with the use of a patch-clamp amplifier (Axopatch 200B, Molecular Devices LLC, Sunnyvale, CA, USA) and processed for analysis via A/D-converter (Digidata 1440A, Molecular Devices LLC). Recordings underwent series resistance compensation, low-pass filtering at 1 kHz, and were sampled at 10 kHz or 100 kHz for potassium and sodium currents, respectively. For recording and analyzing data, pClamp 10.0 software (Molecular Devices LLC) was used.

Another data set has as its system rats. Details: method as in ref 24 = [24]; 24 Macko J , Weeks M ( 1980 ) Phase 6: Acute toxicity evaluation of N,N-diethyl-meta-toluamide (M-Det.) . U.S. Army Environmental Hygiene Agency Study No.71-51-0034-81. The note with it: oral administration to rats ref 24; cited from earlier work.

Consider `CCN(CC)C(=O)c1cccc(C)c1` [DEET, N, N-diethyl-meta-toluamide], for which the “block of inward sodium currents in words” value in data set [1] (1 mM) is “completely blocked”. In addition, the “sodium current amplitude restored by washout” value in data set [1] (after 1 mM block) was “approximately 50%”. The IC50 (as a rule, the concentration needed to halve the response being measured) in data set [1] (read-out: IC50 against sodium channels) is around 700 µM. For the same compound, the LD50 entry in the data set on rats is given as “ca. 3000 mg/kg”.
